Results on one molecule are retold here after publication PMC10865871, “Homologous acetone carboxylases select Fe(II) or Mn(II) as the catalytic cofactor” (mBio, 2023).

Assay [1] has as its target T1, X. autotrophicus AC (acetone carboxylase, (αβγ)2) (Xanthobacter versatilis, UniProt Q8RM03+Q8RM04).
T1 construct: gene acxB; recombinant in E. coli BL21(DE3), pET-Duet vectors; N-terminal 6-His tag on beta subunit; (αβγ)2 heterohexamer; AMP site in beta, metal site in alpha; with Acetone carboxylase gamma subunit
T1 sequence (Q8RM03 1-776): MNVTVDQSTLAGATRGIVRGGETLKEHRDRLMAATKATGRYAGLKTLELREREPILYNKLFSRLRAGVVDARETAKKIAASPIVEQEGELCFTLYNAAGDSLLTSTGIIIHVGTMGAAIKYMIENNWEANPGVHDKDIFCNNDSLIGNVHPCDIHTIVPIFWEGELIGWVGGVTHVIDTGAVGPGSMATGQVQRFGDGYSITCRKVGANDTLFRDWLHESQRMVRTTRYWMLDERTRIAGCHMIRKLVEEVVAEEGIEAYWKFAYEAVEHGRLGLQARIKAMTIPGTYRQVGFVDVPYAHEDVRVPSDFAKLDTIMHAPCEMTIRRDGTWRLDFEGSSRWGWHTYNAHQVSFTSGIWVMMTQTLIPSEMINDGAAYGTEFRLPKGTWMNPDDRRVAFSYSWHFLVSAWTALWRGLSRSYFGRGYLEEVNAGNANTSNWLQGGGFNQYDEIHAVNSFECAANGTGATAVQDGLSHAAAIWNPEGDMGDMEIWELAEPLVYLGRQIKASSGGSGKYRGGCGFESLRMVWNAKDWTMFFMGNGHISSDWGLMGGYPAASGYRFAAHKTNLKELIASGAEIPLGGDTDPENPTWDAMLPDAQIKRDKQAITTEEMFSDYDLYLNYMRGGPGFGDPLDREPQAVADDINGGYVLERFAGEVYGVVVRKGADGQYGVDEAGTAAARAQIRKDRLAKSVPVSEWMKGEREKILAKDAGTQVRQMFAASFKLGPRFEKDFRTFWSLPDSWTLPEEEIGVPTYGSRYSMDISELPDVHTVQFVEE
T1 sequence (Q8RM04 1-717): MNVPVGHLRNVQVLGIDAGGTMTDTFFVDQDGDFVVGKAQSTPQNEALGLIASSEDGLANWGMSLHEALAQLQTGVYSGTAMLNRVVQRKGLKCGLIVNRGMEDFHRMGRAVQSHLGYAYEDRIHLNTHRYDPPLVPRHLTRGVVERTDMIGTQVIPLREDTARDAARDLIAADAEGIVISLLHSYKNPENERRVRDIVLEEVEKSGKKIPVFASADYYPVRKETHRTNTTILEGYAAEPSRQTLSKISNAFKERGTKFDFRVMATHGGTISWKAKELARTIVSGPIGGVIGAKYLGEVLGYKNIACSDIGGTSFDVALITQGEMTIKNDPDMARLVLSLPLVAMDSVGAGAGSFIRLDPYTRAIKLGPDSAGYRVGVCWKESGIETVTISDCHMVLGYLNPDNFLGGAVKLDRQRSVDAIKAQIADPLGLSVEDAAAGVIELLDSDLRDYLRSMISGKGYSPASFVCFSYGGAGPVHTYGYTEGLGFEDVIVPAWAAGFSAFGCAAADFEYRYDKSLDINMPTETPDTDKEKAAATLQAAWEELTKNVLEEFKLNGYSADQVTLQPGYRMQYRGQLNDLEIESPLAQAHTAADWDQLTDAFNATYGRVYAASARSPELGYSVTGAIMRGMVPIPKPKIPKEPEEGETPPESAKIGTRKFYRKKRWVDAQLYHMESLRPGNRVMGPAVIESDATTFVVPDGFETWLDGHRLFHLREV
T1 sequence (Q8RM02 2-168 partner): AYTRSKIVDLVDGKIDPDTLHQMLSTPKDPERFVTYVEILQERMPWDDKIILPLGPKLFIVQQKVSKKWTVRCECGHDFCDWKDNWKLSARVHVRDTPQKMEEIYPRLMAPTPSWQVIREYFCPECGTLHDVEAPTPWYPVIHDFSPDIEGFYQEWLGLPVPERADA
Description: EPR of active-site Mn(II); […] Moessbauer. Type of assay: binding. To be noted: 10 mM AMP, 1 mM MgCl2, pH 7.6, 12 K (EPR); Mn(II)-bound enzyme.

Assay [2] has as its target T2, A. aromaticum AC (acetone carboxylase, (αβγ)2) (Aromatoleum aromaticum, UniProt Q5P1N4+Q5P1N5).
T2 construct: gene acxB; recombinant in E. coli BL21(DE3), pET-Duet vectors; N-terminal 6-His tag on beta subunit; (αβγ)2 heterohexamer; with Acetone carboxylase gamma subunit
T2 sequence (Q5P1N4 1-774): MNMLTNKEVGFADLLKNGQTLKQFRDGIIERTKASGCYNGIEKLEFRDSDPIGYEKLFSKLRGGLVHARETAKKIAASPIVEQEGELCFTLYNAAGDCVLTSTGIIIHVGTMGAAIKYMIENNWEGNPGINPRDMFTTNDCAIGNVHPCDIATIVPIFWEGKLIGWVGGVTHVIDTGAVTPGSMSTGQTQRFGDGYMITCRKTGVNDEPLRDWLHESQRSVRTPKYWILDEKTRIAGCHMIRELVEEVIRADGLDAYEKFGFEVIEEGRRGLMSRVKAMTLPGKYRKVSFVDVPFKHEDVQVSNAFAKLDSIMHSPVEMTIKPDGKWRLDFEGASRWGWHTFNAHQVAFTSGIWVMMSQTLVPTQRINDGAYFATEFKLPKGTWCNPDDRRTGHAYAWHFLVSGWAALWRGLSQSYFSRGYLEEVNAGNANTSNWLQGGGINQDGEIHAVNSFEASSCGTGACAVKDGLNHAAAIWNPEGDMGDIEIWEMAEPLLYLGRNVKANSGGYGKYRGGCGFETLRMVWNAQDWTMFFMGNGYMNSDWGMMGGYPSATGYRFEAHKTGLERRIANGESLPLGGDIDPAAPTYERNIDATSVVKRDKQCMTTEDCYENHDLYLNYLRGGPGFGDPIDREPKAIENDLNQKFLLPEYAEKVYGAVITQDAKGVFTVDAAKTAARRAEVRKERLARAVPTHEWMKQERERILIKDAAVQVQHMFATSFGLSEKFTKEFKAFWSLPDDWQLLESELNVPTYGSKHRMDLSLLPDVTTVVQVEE
T2 sequence (Q5P1N5 1-716): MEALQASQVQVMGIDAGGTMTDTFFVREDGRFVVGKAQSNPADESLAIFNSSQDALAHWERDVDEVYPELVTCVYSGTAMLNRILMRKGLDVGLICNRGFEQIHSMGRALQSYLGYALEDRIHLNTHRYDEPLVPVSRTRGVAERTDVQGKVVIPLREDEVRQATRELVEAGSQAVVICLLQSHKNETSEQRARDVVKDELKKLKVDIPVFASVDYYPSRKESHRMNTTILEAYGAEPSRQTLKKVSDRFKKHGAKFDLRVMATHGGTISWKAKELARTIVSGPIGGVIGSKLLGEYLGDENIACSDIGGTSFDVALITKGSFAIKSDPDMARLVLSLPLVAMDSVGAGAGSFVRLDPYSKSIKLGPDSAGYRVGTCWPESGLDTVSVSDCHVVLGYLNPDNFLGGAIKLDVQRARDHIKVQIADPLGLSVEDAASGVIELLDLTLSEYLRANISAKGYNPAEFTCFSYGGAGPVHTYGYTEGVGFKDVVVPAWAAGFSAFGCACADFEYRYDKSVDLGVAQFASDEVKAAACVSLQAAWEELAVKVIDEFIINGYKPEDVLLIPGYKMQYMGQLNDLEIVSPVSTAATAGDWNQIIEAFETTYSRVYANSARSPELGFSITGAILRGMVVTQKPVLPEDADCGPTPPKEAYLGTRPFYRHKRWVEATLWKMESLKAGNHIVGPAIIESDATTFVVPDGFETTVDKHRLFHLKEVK
T2 sequence (Q5P1N3 1-168 partner): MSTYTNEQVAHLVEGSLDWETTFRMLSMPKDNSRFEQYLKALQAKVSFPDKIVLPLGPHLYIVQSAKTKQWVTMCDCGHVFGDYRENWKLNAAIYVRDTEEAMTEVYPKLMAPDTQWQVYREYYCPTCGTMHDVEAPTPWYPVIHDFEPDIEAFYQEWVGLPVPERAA
The assay is described as follows: […] Moessbauer; EPR of Mn(II)-reconstituted enzyme. The following applies: 1 mM AMP, pH 7.6, 57Fe(II)-reconstituted, 80 K (Moessbauer); 10 mM AMP, 1 mM MgCl2 (EPR). In kind it is binding.

As to `Nc1ncnc2c1ncn2[C@@H]1O[C@H](COP(=O)(O)O)[C@@H](O)[C@H]1O` [AMP], the “EPR of active-site Mn(II); 57Fe Moessbauer” value in assay [1] is “Upon the addition of MgAMP, the apparent Mn(II) signal sharpened and intensified”. Also, the “57Fe Moessbauer; EPR of Mn(II)-reconstituted enzyme” value in assay [2] is “three of which (blue, red, and orange) were affected by the addition of AMP”.
